Results: patent US9850283B2, “Macrocyclic inhibitors of the PD-1/PD-L1 and CD80(B7-1)/PD-L1 protein/protein interactions” (BRISTOL-MYERS SQUIBB COMPANY, priority 2013, dated 2017)
Positions of bridges follow the written chain, without caps; N, C: chain ends. Non-standard residues stand in square brackets, D forms with d. Residues, ends and D or L forms follow the SMILES beside them. ξ: configuration not given here. Bta = N[C@@H](Cc1csc2ccccc12)C(=O)O; Hyp = O=C(O)[C@@H]1C[C@@H](O)CN1; NMeNle = CCCC[C@H](NC)C(=O)O; NMeM = CN[C@@H](CCSC)C(=O)O; NMeA = CN[C@@H](C)C(=O)O; ξC = NC(CS)C(=O)O; Sar = CNCC(=O)O

Legend:
Human PD-L1/PD-1 = biological target: T1, Human PD-L1/PD-1 (Homo sapiens, UniProt Q9NZQ7); test: HTRF PD-1-Ig/PD-L1-His binding assay (human PD-L1); conditions: cluster symbol; read-out: HTRF IC50 cluster
T1 construct: made in house; host or cells: HEK293T
Procedure, shortened: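 Interaction of Fc-tagged soluble PD-1 with His-tagged soluble PD-L1 is monitored by time-resolved FRET. Donor is europium cryptate anti-Ig (1 nM final) and acceptor is APC anti-His (20 nM final). Assay buffer is dPBS with 0.1% BSA and 0.05% Tween-20.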

[1] = biological target: T2, LK35.2-hPD-L1 cells / PE-labeled PD-1-Ig (Homo sapiens, UniProt Q9NZQ7); test: LK35.2-hPD-L1 cell binding high-content screening assay; format: cell-based; conditions: cell binding assay, cell line not given; cluster symbol; read-out: CBA IC50 cluster
T2 construct: expressed in transfected cells; host or cells: LK35.2 mouse B cell line
Procedure, shortened: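 Using overnight-cultured LK35.2-hPD-L1 mouse B cells, compound was co-incubated with phycoerythrin-tagged human PD-1-Ig (final 1 nM) at 37 °C for one hour. Unbound label was removed by triple dPBS washing prior to high-content image acquisition and analysis.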

T2 sequence (Q9NZQ7 19-290): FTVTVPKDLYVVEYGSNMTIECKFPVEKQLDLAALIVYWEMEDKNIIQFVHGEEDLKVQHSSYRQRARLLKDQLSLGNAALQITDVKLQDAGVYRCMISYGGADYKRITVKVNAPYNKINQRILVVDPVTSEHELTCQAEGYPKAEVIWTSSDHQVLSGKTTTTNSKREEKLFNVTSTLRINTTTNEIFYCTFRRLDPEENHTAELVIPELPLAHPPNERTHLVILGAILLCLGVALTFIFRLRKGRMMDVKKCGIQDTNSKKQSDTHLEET
T1 sequence (Q9NZQ7 with tags, fused parts or gaps): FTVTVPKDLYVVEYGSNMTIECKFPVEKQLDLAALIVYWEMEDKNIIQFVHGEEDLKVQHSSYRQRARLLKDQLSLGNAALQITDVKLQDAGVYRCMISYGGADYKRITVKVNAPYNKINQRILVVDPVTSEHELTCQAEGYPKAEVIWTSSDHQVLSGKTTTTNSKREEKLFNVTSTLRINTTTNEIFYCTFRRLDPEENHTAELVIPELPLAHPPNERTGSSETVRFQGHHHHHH

Compound | IC50 (Human PD-L1/PD-1) | IC50 [1]
CCCC[C@H]1C(=O)N[C@@H](CCCNC(=N)N)C(=O)NC(C(=O)NCC(N)=O)CSCC(=O)N[C@@H](Cc2ccc(O)cc2)C(=O)N(C)[C@@H](C)C(=O)N[C@@H](CC(N)=O)C(=O)N2CCC[C@H]2C(=O)N[C@@H](CO)C(=O)N[C@@H](CC(C)C)C(=O)N2C[C@H](O)C[C@H]2C(=O)N[C@@H](Cc2c[nH]c3ccccc23)C(=O)N[C@@H](CO)C(=O)N[C@@H](Cc2csc3ccccc23)C(=O)N(C)[C@@H](CCSC)C(=O)N1C (stereo partly drawn) [Example 9099] ({CH2CO}-Y[NMeA]NPSL[Hyp]WS[Bta][NMeM][NMeNle]R[ξC]G-NH2; thioether N-14) | 0.385 to 6.74 nM | 0.158 to 4.71 nM
CCCC[C@H]1C(=O)N(C)[C@@H](CCSC)C(=O)N[C@@H](CCCNC(=N)N)C(=O)NC(C(=O)NCC(N)=O)CSCC(=O)N[C@@H](Cc2ccc(O)cc2)C(=O)N(C)[C@@H](C)C(=O)N[C@@H](CC(N)=O)C(=O)N2CCC[C@H]2C(=O)N[C@@H](Cc2cnc[nH]2)C(=O)N[C@@H](CO)C(=O)N2CCC[C@H]2C(=O)N[C@@H](Cc2c[nH]c3ccccc23)C(=O)N[C@@H](CO)C(=O)N[C@@H](Cc2csc3ccccc23)C(=O)N1C (stereo partly drawn) [Example 9106] ({CH2CO}-Y[NMeA]NPHSPWS[Bta][NMeNle][NMeM]R[ξC]G-NH2; thioether N-14) | 0.385 to 6.74 nM | 4.78 to 72.9 nM
CCCC[C@H]1C(=O)N(C)[C@@H](C)C(=O)N[C@@H](CCCNC(=N)N)C(=O)NC(C(=O)NCC(N)=O)CSCC(=O)N[C@@H](Cc2ccc(O)cc2)C(=O)N(C)[C@@H](C)C(=O)N[C@@H](CC(N)=O)C(=O)N2CCC[C@H]2C(=O)N[C@@H](CO)C(=O)N[C@@H](CC(C)C)C(=O)N2CCC[C@H]2C(=O)N[C@@H](Cc2c[nH]c3ccccc23)C(=O)N[C@@H](CO)C(=O)N[C@@H](Cc2c[nH]c3ccccc23)C(=O)N1C (stereo partly drawn) [Example 9110] ({CH2CO}-Y[NMeA]NPSLPWSW[NMeNle][NMeA]R[ξC]G-NH2; thioether N-14) | 0.385 to 6.74 nM | 4.78 to 72.9 nM
CCCC[C@H]1C(=O)N(C)[C@@H](C)C(=O)N[C@@H](CCCNC(=N)N)C(=O)NC(C(=O)NCC(N)=O)CSCC(=O)N[C@@H](Cc2ccc(O)cc2)C(=O)N(C)[C@@H](C)C(=O)N[C@@H](CC(N)=O)C(=O)N2CCC[C@H]2C(=O)N[C@@H](CO)C(=O)N[C@@H](CC(C)C)C(=O)N2CCC[C@H]2C(=O)N[C@@H](Cc2c[nH]c3ccccc23)C(=O)N[C@@H](CO)C(=O)N[C@@H](Cc2csc3ccccc23)C(=O)N1C (stereo partly drawn) [Example 9111] ({CH2CO}-Y[NMeA]NPSLPWS[Bta][NMeNle][NMeA]R[ξC]G-NH2; thioether N-14) | 0.385 to 6.74 nM | 4.78 to 72.9 nM
CCCC[C@H]1C(=O)N[C@@H](CCCNC(=N)N)C(=O)NC(C(=O)NCC(N)=O)CSCC(=O)N[C@@H](Cc2ccc(O)cc2)C(=O)N(C)[C@@H](C)C(=O)N[C@@H](CC(N)=O)C(=O)N2CCC[C@H]2C(=O)N[C@@H](Cc2cnc[nH]2)C(=O)N[C@@H](CO)C(=O)N2CCC[C@H]2C(=O)N[C@@H](Cc2c[nH]c3ccccc23)C(=O)N[C@@H](CO)C(=O)N[C@@H](Cc2csc3ccccc23)C(=O)N(C)[C@@H](CCSC)C(=O)N1C (stereo partly drawn) [Example 9112] ({CH2CO}-Y[NMeA]NPHSPWS[Bta][NMeM][NMeNle]R[ξC]G-NH2; thioether N-14) | 0.385 to 6.74 nM | 4.78 to 72.9 nM
CCCC[C@H]1C(=O)N(C)[C@@H](CCCC)C(=O)N[C@@H](CO)C(=O)N[C@H](C(=O)NCC(N)=O)CSCC(=O)N[C@@H](Cc2ccccc2)C(=O)N(C)[C@@H](C)C(=O)N[C@@H](CC(N)=O)C(=O)N2CCC[C@H]2C(=O)N[C@@H](Cc2cnc[nH]2)C(=O)N[C@@H](CC(C)C)C(=O)N(C)CC(=O)N[C@@H](Cc2c[nH]c3ccccc23)C(=O)N[C@@H](CO)C(=O)N[C@@H](Cc2c[nH]c3ccccc23)C(=O)N1C [Example 10001] ({CH2CO}-F[NMeA]NPHL[Sar]WSW[NMeNle][NMeNle]SCG-NH2; thioether N-14) | 6.76 to 30.3 nM | > 74.3 nM
CCCC[C@H]1C(=O)N(C)[C@@H](CCCC)C(=O)N[C@@H](CCCNC(=N)N)C(=O)NC(C(=O)NCC(N)=O)CSCC(=O)N[C@@H](Cc2ccc(O)cc2)C(=O)N(C)[C@@H](C)C(=O)N[C@@H](CC(N)=O)C(=O)N2CCC[C@H]2C(=O)N[C@@H](Cc2c[nH]cn2)C(=O)NCC(=O)N[C@@H](CC(C)C)C(=O)N2CCC[C@H]2C(=O)N[C@@H](Cc2c[nH]c3ccccc23)C(=O)N[C@@H](CO)C(=O)N[C@@H](Cc2c[nH]c3ccccc23)C(=O)N1C (stereo partly drawn) [Example 10516] ({CH2CO}-Y[NMeA]NPHGLPWSW[NMeNle][NMeNle]R[ξC]G-NH2; thioether N-15) | > 30.5 nM | > 74.3 nM
CCCC[C@H]1C(=O)N(C)[C@@H](CCCC)C(=O)N[C@@H](CCCNC(=N)N)C(=O)NC(C(=O)NCC(N)=O)CSCC(=O)N[C@@H](Cc2ccc(O)cc2)C(=O)N(C)[C@@H](C)C(=O)N[C@@H](CC(N)=O)C(=O)N2CCC[C@H]2C(=O)N[C@@H](Cc2c[nH]cn2)C(=O)N[C@@H](C)C(=O)N[C@@H](CC(C)C)C(=O)N2CCC[C@H]2C(=O)N[C@@H](Cc2c[nH]c3ccccc23)C(=O)N[C@@H](CO)C(=O)N[C@@H](Cc2c[nH]c3ccccc23)C(=O)N1C (stereo partly drawn) [Example 10517] ({CH2CO}-Y[NMeA]NPHALPWSW[NMeNle][NMeNle]R[ξC]G-NH2; thioether N-15) | > 30.5 nM | > 74.3 nM

Now from value to compound:

IC50 (Human PD-L1/PD-1) | IC50 [1] | Compound
0.385 to 6.74 nM | 0.158 to 4.71 nM | CCCC[C@H]1C(=O)N[C@@H](CCCNC(=N)N)C(=O)NC(C(=O)NCC(N)=O)CSCC(=O)N[C@@H](Cc2ccc(O)cc2)C(=O)N(C)[C@@H](C)C(=O)N[C@@H](CC(N)=O)C(=O)N2CCC[C@H]2C(=O)N[C@@H](CO)C(=O)N[C@@H](CC(C)C)C(=O)N2C[C@H](O)C[C@H]2C(=O)N[C@@H](Cc2c[nH]c3ccccc23)C(=O)N[C@@H](CO)C(=O)N[C@@H](Cc2c[nH]c3ccccc23)C(=O)N(C)[C@@H](CCSC)C(=O)N1C (stereo partly drawn) [Example 9100] ({CH2CO}-Y[NMeA]NPSL[Hyp]WSW[NMeM][NMeNle]R[ξC]G-NH2; thioether N-14)
0.385 to 6.74 nM | 4.78 to 72.9 nM | CCCC[C@H]1C(=O)N(C)[C@@H](CCSC)C(=O)N[C@@H](CCCNC(=N)N)C(=O)NC(C(=O)NCC(N)=O)CSCC(=O)N[C@@H](Cc2ccc(O)cc2)C(=O)N(C)[C@@H](C)C(=O)N[C@@H](CC(N)=O)C(=O)N2CCC[C@H]2C(=O)N[C@@H](Cc2cnc[nH]2)C(=O)N[C@@H](CO)C(=O)N2CCC[C@H]2C(=O)N[C@@H](Cc2c[nH]c3ccccc23)C(=O)N[C@@H](CO)C(=O)N[C@@H](Cc2c[nH]c3ccccc23)C(=O)N1C (stereo partly drawn) [Example 9105] ({CH2CO}-Y[NMeA]NPHSPWSW[NMeNle][NMeM]R[ξC]G-NH2; thioether N-14)
6.76 to 30.3 nM | 4.78 to 72.9 nM | CCCC[C@H]1C(=O)N(C)[C@@H](CCSC)C(=O)N[C@@H](CCCNC(=N)N)C(=O)NC(C(=O)NCC(N)=O)CSCC(=O)N[C@@H](Cc2ccc(O)cc2)C(=O)N(C)[C@@H](C)C(=O)N[C@@H](CC(N)=O)C(=O)N2CCC[C@H]2C(=O)N[C@@H](Cc2cnc[nH]2)C(=O)N[C@@H](CO)C(=O)N2C[C@H](O)C[C@H]2C(=O)N[C@@H](Cc2c[nH]c3ccccc23)C(=O)N[C@@H](CO)C(=O)N[C@@H](Cc2c[nH]c3ccccc23)C(=O)N1C (stereo partly drawn) [Example 9107] ({CH2CO}-Y[NMeA]NPHS[Hyp]WSW[NMeNle][NMeM]R[ξC]G-NH2; thioether N-14)
0.385 to 6.74 nM | 0.158 to 4.71 nM | CCCC[C@H]1C(=O)N(C)[C@@H](CCSC)C(=O)N[C@@H](CCCNC(=N)N)C(=O)NC(C(=O)NCC(N)=O)CSCC(=O)N[C@@H](Cc2ccc(O)cc2)C(=O)N(C)[C@@H](C)C(=O)N[C@@H](CC(N)=O)C(=O)N2CCC[C@H]2C(=O)N[C@@H](Cc2cnc[nH]2)C(=O)N[C@@H](CO)C(=O)N2C[C@H](O)C[C@H]2C(=O)N[C@@H](Cc2c[nH]c3ccccc23)C(=O)N[C@@H](CO)C(=O)N[C@@H](Cc2csc3ccccc23)C(=O)N1C (stereo partly drawn) [Example 9108] ({CH2CO}-Y[NMeA]NPHS[Hyp]WS[Bta][NMeNle][NMeM]R[ξC]G-NH2; thioether N-14)
6.76 to 30.3 nM | 4.78 to 72.9 nM | CCCC[C@H]1C(=O)N[C@@H](CCCNC(=N)N)C(=O)NC(C(=O)NCC(N)=O)CSCC(=O)N[C@@H](Cc2ccc(O)cc2)C(=O)N(C)[C@@H](C)C(=O)N[C@@H](CC(N)=O)C(=O)N2CCC[C@H]2C(=O)N[C@@H](Cc2cnc[nH]2)C(=O)N[C@@H](CO)C(=O)N2CCC[C@H]2C(=O)N[C@@H](Cc2c[nH]c3ccccc23)C(=O)N[C@@H](CO)C(=O)N[C@@H](Cc2c[nH]c3ccccc23)C(=O)N(C)[C@@H](CCSC)C(=O)N1C (stereo partly drawn) [Example 9109] ({CH2CO}-Y[NMeA]NPHSPWSW[NMeM][NMeNle]R[ξC]G-NH2; thioether N-14)
6.76 to 30.3 nM | 4.78 to 72.9 nM | CCCC[C@H]1C(=O)N[C@@H](CCCNC(=N)N)C(=O)NC(C(=O)NCC(N)=O)CSCC(=O)N[C@@H](Cc2ccc(O)cc2)C(=O)N(C)[C@@H](C)C(=O)N[C@@H](CC(N)=O)C(=O)N2CCC[C@H]2C(=O)N[C@@H](Cc2cnc[nH]2)C(=O)N[C@@H](CO)C(=O)N2C[C@H](O)C[C@H]2C(=O)N[C@@H](Cc2c[nH]c3ccccc23)C(=O)N[C@@H](CO)C(=O)N[C@@H](Cc2c[nH]c3ccccc23)C(=O)N(C)[C@@H](CCSC)C(=O)N1C (stereo partly drawn) [Example 9113] ({CH2CO}-Y[NMeA]NPHS[Hyp]WSW[NMeM][NMeNle]R[ξC]G-NH2; thioether N-14)
6.76 to 30.3 nM | 4.78 to 72.9 nM | CCCC[C@H]1C(=O)N[C@@H](CCCNC(=N)N)C(=O)NC(C(=O)NCC(N)=O)CSCC(=O)N[C@@H](Cc2ccc(O)cc2)C(=O)N(C)[C@@H](C)C(=O)N[C@@H](CC(N)=O)C(=O)N2CCC[C@H]2C(=O)N[C@@H](Cc2cnc[nH]2)C(=O)N[C@@H](CO)C(=O)N2C[C@H](O)C[C@H]2C(=O)N[C@@H](Cc2c[nH]c3ccccc23)C(=O)N[C@@H](CO)C(=O)N[C@@H](Cc2csc3ccccc23)C(=O)N(C)[C@@H](CCSC)C(=O)N1C (stereo partly drawn) [Example 9114] ({CH2CO}-Y[NMeA]NPHS[Hyp]WS[Bta][NMeM][NMeNle]R[ξC]G-NH2; thioether N-14)
